Patent US5283183A, “Cyclic FR-900520 microbial biotransformation agent” (Merck & Co., Inc., priority 1992, dated 1994)
Where “and” joins values, the source holds several entries; their conditions need not be identical. Equal entries are not always repeated. Entries after “also recorded” stand apart in the source; their conditions may differ. Where two headings read alike, the source gives them in different places.

Experiments:
mouse T lymphocytes = assay: T-cell proliferation assay (ionomycin + PMA induced, tritiated thymidine uptake); type: cell-based, mouse (C57B1/6)
Procedure: The principle of this assay is to measure the proliferation of mouse T lymphocytes stimulated with the combination of ionomycin plus PMA.
Cells were pelleted by centrifugation at 1500 rpm for 8 minutes. Contaminating red cells were removed by treating the pellet with ammonium chloride lysing buffer (GIBCO) for 2 minutes at 4° C. Cold medium was added and cells were again centrifuged at 1500 rpm for 8 minutes. T lymphocytes were then isolated by separation of the cell suspension on nylon wool columns as follows: Nylon wool columns were prepared by packing approximately 4 grams of washed and dried nylon wool into 20 ml plastic syringes. The columns were sterilized by autoclaving at 250° F. for 30 minutes. Nylon wool columns were wetted with warm (37° C.) culture medium and rinsed with the same medium. Washed spleen cells resuspended in warm medium were slowly applied to the nylon wool. The columns were then incubated in an upright position at 37° C. for 1 hour. Non-adherent T lymphocytes were eluted from the columns with warm culture medium and the cell suspensions were spun as above.
The cell suspension was immediately distributed into 96 well flat-bottom microculture plates (Costar) at 200 μl/well. […] The proliferation of T lymphocytes was assessed by measurement of tritiated thymidine incorporation. After 44 hours of culturing, the cells were pulse-labelled with 2 μCi/well of tritiated thymidine (NEN, Cambridge, Mass.). After another 4 hours of incubation, cultures were harvested on glass fiber filters using a multiple sample harvester. Radioactivity of filter discs corresponding to individual wells was measured by standard liquid scintillation counting methods (Betacounter). Mean counts per minute of replicate wells were calculated and the results expressed as percent inhibition of tritiated thymidine uptake (proliferation) as follows: [formula]

[1] = reputed; EPO Publication No. 0184162; cited from earlier work

With `CC[C@@H]1C=C2COC1(O)C[C@H](O)[C@@H](C)[C@@H](/C(C)=C/[C@@H]1CC[C@@H](O)[C@H](OC)C1)OC(=O)[C@@H]1CCCCN1C(=O)C(=O)[C@]1(O)O[C@H]([C@@H](OC)C[C@@H](C)C2)[C@@H](OC)C[C@H]1C` [Compound I] the IC50 (mouse T lymphocytes; 5 additional experiments, individual values) was 1.92 ng/mL and 5.20 ng/mL and 4.80 ng/mL and 4.50 ng/mL, the “Inhibition of T-cell proliferation after addition of IL2” value (mouse T lymphocytes; 50 units/ml recombinant IL2 at the initiation of culture) was “reversed” and the IC50 (mouse T lymphocytes; Mus musculus, T-lymphocyte, based on 5 additional experiments, read-out: IC50, general range) was 1.57 to 5.2 ng/mL. The IC50 (mouse T lymphocytes; Mus musculus, T-lymphocyte, mean of all 6 runs, ± SEM, read-out: mean IC50) was 4.36 ± 1.7 nM, the IC50 (mouse T lymphocytes; Mus musculus, T-lymphocyte, run of the Table, read-out: IC50) was 3.17 ng/mL and the inhibition at 0.0008 µM (mouse T lymphocytes; Mus musculus, T-lymphocyte, Compound I 0.8 nM, read-out: Percent of Inhibition) was 16%. It also gave an inhibition at 0.0016 µM (mouse T lymphocytes; Mus musculus, T-lymphocyte, Compound I 1.6 nM, read-out: Percent of Inhibition) of 19%, an inhibition at 0.0031 µM (mouse T lymphocytes; Mus musculus, T-lymphocyte, Compound I 3.1 nM, read-out: Percent of Inhibition) of 55% and an inhibition at 0.0062 µM (mouse T lymphocytes; Mus musculus, T-lymphocyte, Compound I 6.2 nM, read-out: Percent of Inhibition) of 78%. For the same compound, the inhibition at 0.0125 µM (mouse T lymphocytes; Mus musculus, T-lymphocyte, Compound I 12.5 nM, read-out: Percent of Inhibition) was 91%, the inhibition at 0.025 µM (mouse T lymphocytes; Mus musculus, T-lymphocyte, Compound I 25.0 nM, read-out: Percent of Inhibition) was 94% and the inhibition at 0.05 µM (mouse T lymphocytes; Mus musculus, T-lymphocyte, Compound I 50.0 nM, read-out: Percent of Inhibition) was 94%. The immunosuppressant activity (mouse T lymphocytes; qualitative statement) was “positive inhibition of T-cell activation; also recorded: positive immunosuppressive activity”.
In the case of `C=CC[C@@H]1/C=C(\C)C[C@H](C)C[C@H](OC)[C@H]2O[C@@](O)(C(=O)C(=O)N3CCCC[C@H]3C(=O)O[C@H](/C(C)=C/[C@@H]3CC[C@@H](O)[C@H](OC)C3)[C@H](C)[C@@H](O)CC1=O)[C@H](C)C[C@@H]2OC` [FK-506], the “times more effective than cyclosporin” value [1] is given as 100 times.
